# Laboratory results taken from US20110070232A1, “Combination Therapy with an Antitumor Alkaloid” (Pharma Mar, S.A., priority 2008, published 2011).
# Like-named read-outs stand apart in the source and are kept apart here.
# Experiments:
# [1] = test system: AGS human gastric carcinoma cell line; test: IC50 determination, MTS assay, 72 h (Example 1); format: cell-based; settings: Homo sapiens, 72 hours of drug exposure, read-out: IC50
# Procedure: (§1) The human gastric carcinoma cell lines selected for this assay were the following: Hs746T, HGC-27, and AGS cell lines. Hs746T and AGS cell lines were grown in Dulbecco's modified Eagle's medium (DMEM) supplemented with 10% Fetal Bovine Serum (FBS), 1.5 g/L sodium bicarbonate, 4.5 g/L glucose and 4 mM L-glutamine. HGC-27 cell line was grown in Iscove's modified Dulbecco's medium (IMDM) supplemented with 20% FBS and 2 mM L-glutamine.
# (§2) The day before plating, the cells were fed with fresh, complete growth media. On the harvest (plating) day, cells were counted by Trypan Blue exclusion staining method.
# (§3) Cells were harvested and seeded in 96 well microtiter plates at 10,000 cells density in 150 μL of media and incubated for 24 hours to allow the cells to attach before drug addition. To collect reference data, the MTS assay was done on untreated cells at time 0 (after incubation of cells for 24 hours).
# (§4) The cytotoxic effect was measured by the MTS Assay (Tetrazolium), which is a colorimetric method for determining the number of viable cells. After the incubation period (24 hours for the Day 0 plate and 72 hours for the Test and Control plates), 25 μL of MTS+PMS solution was added to each microtiter well and incubated for 4 hours at 37° C. Plates were then removed from incubator and placed on plate shaker for 5 minutes (covered with aluminum foil for protection from light). Optical densities were read at 490 nm on spectrophotometer plate reader.
# (§5) IC50 values were calculated from an average of two to four assays for each of the test agents.
# [2] = test system: HGC-27 human gastric carcinoma cell line; test: IC50 determination, MTS assay, 72 h (Example 1); format: cell-based; settings: Homo sapiens, 72 hours of drug exposure, read-out: IC50
# Procedure: as §1, §2, §3, §4, §5
# [3] = test system: Hs746T human gastric carcinoma cell line; test: IC50 determination, MTS assay, 72 h (Example 1); format: cell-based; settings: Homo sapiens, 72 hours of drug exposure, read-out: IC50
# Procedure: as §1, §2, §3, §4, §5
# Hs746T tumors = format: in vivo, mice; settings: for % T/C on day 14 / % T/C on day 19 / % T/C on day 22 / % T/C on day 26 / % T/C on day 29 / % T/C on day 32 / % T/C on day 39: PM00104 0.90 IV, DPI 14, 21, 28
# Procedure: Female athymic nude mice (Harlan Sprague Dawley, Madison, Wis.) were utilized for all experiments. Animals were housed in ventilated rack caging with food and water ad libitum. The mice were acclimated for at least 5 days prior to tumor implantation with a tumor cell suspension.
# The tumor model used in these studies was Hs746T cell line, which was obtained from the ATCC (Manassas, Va.).
# Treatments were initiated on DPI 14.
# (§6) Tumor size measurements were recorded twice weekly from the treatment initiation until the termination of the study.
# (§7) Mean, standard deviation and standard error of the mean were determined for tumor volume for all animal groups at all assessments. Student's t test was performed on tumor volumes at each measurement day, including at the end of the study, to determine whether there were any statistically significant differences between combination treatment groups and single monotherapy treatment groups.
# MRI-H-254 tumors = format: in vivo, mice
# Procedure: Female athymic nude mice (Harlan Sprague Dawley, Madison, Wis.) were utilized for all experiments. Animals were housed in ventilated rack caging with food and water ad libitum. The mice were acclimated for at least 5 days prior to tumor implantation with tumor fragments.
# Treatments were initiated on DPI 20.
# as §6, §7
# [4] = docetaxel 8 IP, oxaliplatin 4 IP mg/kg/day (G4, G6, G8, G10)
# [5] = docetaxel 16 IP, oxaliplatin 8 IP mg/kg/day (G2, G3, G5, G7, G9)
# [6] = PM00104 0.90 IV, docetaxel 8 IP, oxaliplatin 4 IP mg/kg/day (G4, G6, G8, G10), DPI 20, 27, 34
# [7] = PM00104 0.90 IV, docetaxel 16 IP, oxaliplatin 8 IP mg/kg/day (G2, G3, G5, G7, G9), DPI 20, 27, 34
structure (smiles),measurement,setting,value
"CC(=O)O[C@@]12CO[C@@H]1C[C@H](O)[C@@]1(C)C(=O)[C@H](O)C3=C(C)[C@@H](OC(=O)[C@H](O)[C@@H](NC(=O)OC(C)(C)C)c4ccccc4)C[C@@](O)([C@@H](OC(=O)c4ccccc4)[C@H]21)C3(C)C [Docetaxel, docetaxel]",IC50,[1],1.99 mg/L
same,IC50,[2],6.54 mg/L
same,IC50,[3],44.2 mg/L
same,% T/C on day 14,Hs746T tumors; [4],100.8%
same,% T/C on day 19,Hs746T tumors; [4],49.0%
same,% T/C on day 22,Hs746T tumors; [4],41.6%
same,% T/C on day 26,Hs746T tumors; [4],32.5%
same,% T/C on day 29,Hs746T tumors; [4],29.4%
same,% T/C on day 32,Hs746T tumors; [4],39.4%
same,% T/C on day 39,Hs746T tumors; [4],55.1%
same,% T/C on day 14,Hs746T tumors; [5],100.3%
same,% T/C on day 19,Hs746T tumors; [5],33.6%
same,% T/C on day 22,Hs746T tumors; [5],21.3%
same,% T/C on day 26,Hs746T tumors; [5],7.2%
same,% T/C on day 29,Hs746T tumors; [5],3.5%
same,% T/C on day 32,Hs746T tumors; [5],1.5%
same,% T/C on day 39,Hs746T tumors; [5],−0.6%
same,% Inhibition,"Hs746T tumors; day 14, PM00104 0.9 and docetaxel 8 mg/kg/day",−0.8%
same,% Inhibition,"Hs746T tumors; day 14, PM00104 0.9 and docetaxel 16 mg/kg/day",−0.3%
same,% Inhibition,"Hs746T tumors; day 19, PM00104 0.9 and docetaxel 8 mg/kg/day",51.0%
same,% Inhibition,"Hs746T tumors; day 19, PM00104 0.9 and docetaxel 16 mg/kg/day",66.4%
same,% Inhibition,"Hs746T tumors; day 22, PM00104 0.9 and docetaxel 8 mg/kg/day",58.4%
same,% Inhibition,"Hs746T tumors; day 22, PM00104 0.9 and docetaxel 16 mg/kg/day",78.7%
same,% Inhibition,"Hs746T tumors; day 26, PM00104 0.9 and docetaxel 8 mg/kg/day",67.5%
same,% Inhibition,"Hs746T tumors; day 26, PM00104 0.9 and docetaxel 16 mg/kg/day",92.8%
same,% Inhibition,"Hs746T tumors; day 29, PM00104 0.9 and docetaxel 8 mg/kg/day",70.6%
same,% Inhibition,"Hs746T tumors; day 29, PM00104 0.9 and docetaxel 16 mg/kg/day",96.5%
same,% Inhibition,"Hs746T tumors; day 32, PM00104 0.9 and docetaxel 8 mg/kg/day",60.6%
same,% Inhibition,"Hs746T tumors; day 32, PM00104 0.9 and docetaxel 16 mg/kg/day",98.5%
same,% Inhibition,"Hs746T tumors; day 39, PM00104 0.9 and docetaxel 8 mg/kg/day",44.9%
same,% Inhibition,"Hs746T tumors; day 39, PM00104 0.9 and docetaxel 16 mg/kg/day",100.6%
same,% T/C on day 20,MRI-H-254 tumors; [6],97.7%
same,% T/C on day 23,MRI-H-254 tumors; [6],122.8%
same,% T/C on day 27,MRI-H-254 tumors; [6],93.1%
same,% T/C on day 30,MRI-H-254 tumors; [6],102.6%
same,% T/C on day 33,MRI-H-254 tumors; [6],114.1%
same,% T/C on day 36,MRI-H-254 tumors; [6],119.2%
same,% T/C on day 40,MRI-H-254 tumors; [6],120.1%
same,% T/C on day 48,MRI-H-254 tumors; [6],97.3%
same,% T/C on day 20,MRI-H-254 tumors; [7],101.4%
same,% T/C on day 23,MRI-H-254 tumors; [7],115.4%
same,% T/C on day 27,MRI-H-254 tumors; [7],90.9%
same,% T/C on day 33,MRI-H-254 tumors; [7],115.8%
same,% T/C on day 36,MRI-H-254 tumors; [7],108.4%
same,% T/C on day 40,MRI-H-254 tumors; [7],100.4%
same,% T/C on day 48,MRI-H-254 tumors; [7],76.7%
same,% Inhibition,"MRI-H-254 tumors; day 20, PM00104 0.9 and docetaxel 8 mg/kg/day",2.3%
same,% Inhibition,"MRI-H-254 tumors; day 20, PM00104 0.9 and docetaxel 16 mg/kg/day",−1.4%
same,% Inhibition,"MRI-H-254 tumors; day 23, PM00104 0.9 and docetaxel 8 mg/kg/day",−22.8%
same,% Inhibition,"MRI-H-254 tumors; day 23, PM00104 0.9 and docetaxel 16 mg/kg/day",−15.4%
same,% Inhibition,"MRI-H-254 tumors; day 27, PM00104 0.9 and docetaxel 8 mg/kg/day",6.9%
same,% Inhibition,"MRI-H-254 tumors; day 27, PM00104 0.9 and docetaxel 16 mg/kg/day",9.1%
same,% Inhibition,"MRI-H-254 tumors; day 30, PM00104 0.9 and docetaxel 8 mg/kg/day",−2.6%
same,% Inhibition,"MRI-H-254 tumors; day 30, PM00104 0.9 and docetaxel 16 mg/kg/day",−17.1%
same,% Inhibition,"MRI-H-254 tumors; day 33, PM00104 0.9 and docetaxel 8 mg/kg/day",−14.1%
same,% Inhibition,"MRI-H-254 tumors; day 33, PM00104 0.9 and docetaxel 16 mg/kg/day",−15.8%
same,% Inhibition,"MRI-H-254 tumors; day 36, PM00104 0.9 and docetaxel 8 mg/kg/day",−19.2%
same,% Inhibition,"MRI-H-254 tumors; day 36, PM00104 0.9 and docetaxel 16 mg/kg/day",−8.4%
same,% Inhibition,"MRI-H-254 tumors; day 40, PM00104 0.9 and docetaxel 8 mg/kg/day",−20.1%
same,% Inhibition,"MRI-H-254 tumors; day 40, PM00104 0.9 and docetaxel 16 mg/kg/day",−0.4%
same,% Inhibition,"MRI-H-254 tumors; day 48, PM00104 0.9 and docetaxel 8 mg/kg/day",2.7%
same,% Inhibition,"MRI-H-254 tumors; day 48, PM00104 0.9 and docetaxel 16 mg/kg/day",23.3%
